Reference: patent US20240317714A1, “3-[(1H-PYRAZOL-R-YL)OXY]PYRAZIN-2-AMINE COMPOUNDS AS HPK1 INHIBITOR AND USE THEREOF” (BeiGene, Ltd., priority 2020, published 2024)

Tests used:
[1] = target: HPK1 kinase (aal-346. Life Technologies) (Homo sapiens (Human), UniProt Q92918); assay: HPK Kinase Activity Assay at 1 mM ATP (TR-FRET); type: biochemical; conditions: HPK1 kinase 40 nM, 0.5 μM STK1 substrate, read-out: Enzymatic activity IC50
[2] = tested on: pSLP76(S376) level in Jurkat cell line; assay: Cellular pSLP76(S376) HTRF Assay; type: cell-based; conditions: Homo sapiens, Jurkat, Jurkat cells, 2 h compound treatment, stimulated with 0.05 μg/mL anti-human CD3 (OKT3) for 30 min

Chain of HPK1 kinase (aal-346. Life Technologies) (Q92918 1-346): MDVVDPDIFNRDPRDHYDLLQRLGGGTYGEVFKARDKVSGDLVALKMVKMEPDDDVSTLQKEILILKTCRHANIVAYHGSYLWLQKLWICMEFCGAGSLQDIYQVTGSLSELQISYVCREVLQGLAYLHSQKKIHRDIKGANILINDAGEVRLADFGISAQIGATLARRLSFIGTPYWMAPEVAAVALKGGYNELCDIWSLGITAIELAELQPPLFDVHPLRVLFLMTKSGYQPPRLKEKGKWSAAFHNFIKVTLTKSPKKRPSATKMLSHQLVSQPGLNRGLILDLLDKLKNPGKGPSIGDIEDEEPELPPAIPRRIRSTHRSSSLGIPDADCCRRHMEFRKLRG

IC50 [1] [nM] | IC50 [2] [nM] | SMILES
14 | 62 | Cc1cc(-c2cnc(N)c(Oc3cnn(C4CCN(C)CC4)c3)n2)cc(C2(NS(=O)(=O)CC(F)(F)F)CC2)c1 [Example A25, N-(l-(3-(5-amino-6-((1-(1-methylpiperidin-4-yl)-H-pyrazol-4-yl)oxy)pyrazin-2-yl)-5-methylphenyl)cyclopropyl)-2,2,2-trifluoroethane-1-sulfonamide]
30 | 82 | CNC(=O)NCc1c(C)cc(-c2cnc(N)c(Oc3cnn(C4CCN(C)CC4)c3)n2)cc1C [Example A26, 1-(4-(5-amino-6-((1-(1-methylpiperidin-4-yl)-1H-pyrazol-4-yl)oxy)pyrazin-2-yl)-2,6-dimethylbenzyl)-3-methylurea]
57 | 81 | CCN1CCC(n2cc(Oc3nc(-c4cc(C)cc(S(=O)(=O)NC)c4)cnc3N)cn2)CC1 [Example A27, 3-(5-amino-6-((1-(1-ethylpiperidin-4-yl)-1H-pyrazol-4-yl)oxy)pyrazin-2-yl)-N,5-dimethylbenzenesulfonamide]
50 | 97 | CNS(=O)(=O)c1cc(C)cc(-c2cnc(N)c(Oc3cnn(C4CCN(CC5COC5)CC4)c3)n2)c1 [Example A28, 3-(5-amino-6-((1-(1-(oxetan-3-ylmethyl)piperidin-4-yl)-1H-pyrazol-4-yl)oxy)pyrazin-2-yl)-N, 5-dimethylbenzenesulfonamide]
21 | 97 | Cc1cc(-c2cnc(N)c(Oc3cnn(C4CCN(C)CC4)c3)n2)cc(C)c1C1COC(=O)N1 (stereo not drawn) [Example A29, 4-(4-(5-amino-6-((1-(1-methylpiperidin-4-yl)-1H-pyrazol-4-yl)oxy)pyrazin-2-yl)-2,6-dimethylphenyl)oxazolidin-2-one]
111 | 330 | CNS(=O)(=O)c1cc(-c2cnc(N)c(Oc3cnn(C4CCN(C)CC4)c3)n2)cc(C(C)(C)C)c1 [Example A30, 3-(5-amino-6-((1-(1-methylpiperidin-4-yl)-1H-pyrazol-4-yl)oxy)pyrazin-2-yl)-5-(tert-butyl)-N-methylbenzenesulfonamide]
34 | 77 | Cc1cc(-c2cnc(N)c(Oc3cnn(C4CCN(C)CC4)c3)n2)cc(C)c1CNS(=O)(=O)C1CCOCC1 [Example A31, N-(4-(5-amino-6-((1-(1-methylpiperidin-4-yl)-1H-pyrazol-4-yl)oxy)pyrazin-2-yl)-2,6-dimethylbenzyl)tetrahydro-2H-pyran-4-sulfonamide]
30 | 81 | Cc1cc(-c2cnc(N)c(Oc3cnn(C4CCN(C)CC4)c3)n2)cc(C)c1CNS(=O)(=O)C1CC1 [Example A32, N-(4-(5-amino-6-((1-(1-methylpiperidin-4-yl)-1H-pyrazol-4-yl)oxy)pyrazin-2-yl)-2,6-dimethylbenzyl)cyclopropanesulfonamide]
67 | 102 | Cc1cc(-c2cnc(N)c(Oc3cnn(C4CCN(C)CC4)c3)n2)cc(C(F)F)c1C(=O)NCCN(C)C [Example A33, 4-(5-amino-6-((1-(1-methylpiperidin-4-yl)-1H-pyrazol-4-yl)oxy)pyrazin-2-yl)-2-(difluoromethyl)-N-(2-(dimethylamino)ethyl)-6-methylbenzamide]
47 | 123 | Cc1cc(-c2cnc(N)c(Oc3cnn(C4CCN(C)CC4)c3)n2)cc(C)c1C1COCC(=O)N1 (stereo not drawn) [Example A35, 5-(4-(5-amino-6-((1-(1-methylpiperidin-4-yl)-1H-pyrazol-4-yl)oxy)pyrazin-2-yl)-2,6-dimethylphenyl)morpholin-3-one]
22 | 54 | CCNC(=O)NCc1c(C)cc(-c2cnc(N)c(Oc3cnn(C4CCN(C)CC4)c3)n2)cc1C [Example A36, 1-(4-(5-amino-6-((1-(1-methylpiperidin-4-yl)-1H-pyrazol-4-yl)oxy)pyrazin-2-yl)-2,6-dimethylbenzyl)-3-ethylurea]
17 | 98 | Cc1cc(-c2cnc(N)c(Oc3cnn(C4CCN(C)CC4)c3)n2)cc(C)c1CNC(=O)NC1CCCC1 [Example A37, 1-(4-(5-amino-6-((1-(1-methylpiperidin-4-yl)-1H-pyrazol-4-yl)oxy)pyrazin-2-yl)-2,6-dimethylbenzyl)-3-cyclopentylurea]
37 | 125 | Cc1cc(-c2cnc(N)c(Oc3cnn(C4CCN(C)CC4)c3)n2)cc(C)c1CNS(=O)(=O)c1ccccc1 [Example A38, N-(4-(5-amino-6-((1-(1-methylpiperidin-4-yl)-1H-pyrazol-4-yl)oxy)pyrazin-2-yl)-2,6-dimethylbenzyl)benzenesulfonamide]
35 | 176 | COc1ccc(S(=O)(=O)NCc2c(C)cc(-c3cnc(N)c(Oc4cnn(C5CCN(C)CC5)c4)n3)cc2C)cc1 [Example A39, N-(4-(5-amino-6-((1-(1-methylpiperidin-4-yl)-1H-pyrazol-4-yl)oxy)pyrazin-2-yl)-2,6-dimethylbenzyl)-4-methoxybenzenesulfonamide]
33 | 125 | Cc1cc(-c2cnc(N)c(Oc3cnn(C4CCN(C)CC4)c3)n2)cc(C)c1CNS(=O)(=O)C1CCCC1 [Example A40, N-(4-(5-amino-6-((1-(1-methylpiperidin-4-yl)-1H-pyrazol-4-yl)oxy)pyrazin-2-yl)-2,6-dimethylbenzyl)cyclopentanesulfonamide]
11 | 101 | CNS(=O)(=O)c1cc(-c2cnc(N)c(Oc3cnn(C4CCN(C)CC4)c3)n2)cc(N2CCCCC2)c1 [Example A41, 3-(5-amino-6-((1-(1-methylpiperidin-4-yl)-1H-pyrazol-4-yl)oxy)pyrazin-2-yl)-N-methyl-5-(piperidin-1-yl)benzenesulfonamide]
19 | 82 | CNS(=O)(=O)c1cc(-c2cnc(N)c(Oc3cnn(C4CCN(C)CC4)c3)n2)cc(N2CCOCC2)c1 [Example A42, 3-(5-amino-6-((1-(1-methylpiperidin-4-yl)-1H-pyrazol-4-yl)oxy)pyrazin-2-yl)-N-methyl-5-morpholinobenzenesulfonamide]
6 | 26 | CNS(=O)(=O)c1cc(-c2cnc(N)c(Oc3cnn(C4CCN(C)CC4)c3)n2)cc(N2CCC[C@H]2C)c1 [Example A43, (R)-3-(5-amino-6-((1-(1-methylpiperidin-4-yl)-1H-pyrazol-4-yl)oxy)pyrazin-2-yl)-N-methyl-5-(2-methylpyrrolidin-1-yl)benzenesulfonamide]
9 | 61 | Cc1cc(-c2cnc(N)c(Oc3cnn(C4CCN(C)CC4)c3)n2)cc(C)c1CNC(=O)c1ccccc1 [Example A44, N-(4-(5-amino-6-((1-(1-methylpiperidin-4-yl)-1H-pyrazol-4-yl)oxy)pyrazin-2-yl)-2,6-dimethylbenzyl)benzamide]
51 | 119 | CC(=O)NCc1c(C)cc(-c2cnc(N)c(Oc3cnn(C4CCN(C)CC4)c3)n2)cc1C [Example A45, N-(4-(5-amino-6-((1-(1-methylpiperidin-4-yl)-1H-pyrazol-4-yl)oxy)pyrazin-2-yl)-2,6-dimethylbenzyl)acetamide]
51 | 98 | Cc1cc(-c2cnc(N)c(Oc3cnn(C4CCN(C)CC4)c3)n2)ccc1CNS(C)(=O)=O [Example A46, N-(4-(5-amino-6-((1-(1-methylpiperidin-4-yl)-1H-pyrazol-4-yl)oxy)pyrazin-2-yl)-2-methylbenzyl)methanesulfonamide]
